Here are results for 30 compounds from patent publication US6521623B1, “N,N'-disubstituted benzimidazolone derivatives with affinity at the serotonin and dopamine receptors” (Boehringer Ingelheim Pharma KG, priority 2000, dated 2003).

The target of one assay is T1, D4 human receptors (Homo sapiens, UniProt P21917).
T1 construct: expressed in transfected cells; host or cells: CHO cells
T1 sequence (P21917 1-419): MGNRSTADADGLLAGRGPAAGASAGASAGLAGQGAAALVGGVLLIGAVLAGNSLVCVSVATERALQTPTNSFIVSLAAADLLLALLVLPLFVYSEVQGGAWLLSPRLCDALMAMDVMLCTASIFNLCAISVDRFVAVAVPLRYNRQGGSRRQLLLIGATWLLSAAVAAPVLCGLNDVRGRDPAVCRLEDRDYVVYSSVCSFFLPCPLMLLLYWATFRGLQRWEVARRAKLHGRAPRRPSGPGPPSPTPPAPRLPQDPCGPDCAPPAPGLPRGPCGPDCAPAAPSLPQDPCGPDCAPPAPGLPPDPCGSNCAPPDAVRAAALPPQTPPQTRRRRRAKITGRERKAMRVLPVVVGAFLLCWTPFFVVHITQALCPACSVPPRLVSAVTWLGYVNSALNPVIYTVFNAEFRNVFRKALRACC
As to the kind of experiment: D4 Radioligand Receptor Binding Assay ([3H] YM-09151-2, CHO cell membranes). As to conditions: compound 10^−7 M, singlicate, [3H] YM-09151-2 0.15-0.25 nM. Here is the method: D4 Radioligand Receptor Binding Assay
Membranes from CHO cells expressing D4 human receptors, were suspended in incubation buffer.
Binding assays were performed in MultiProbe 204 pipetting system (Packard), according to a predetermined mapping, consistent with the software Screen. The compounds were tested in singlicate at one concentration (10^−7 M) in a total volume of 1000 μl (980 μl of diluted membranes, 10 μl DMSO or unlabelled ligand and 10 μl of [^3H] YM-09151-2 (0.15-0.25 nM). After incubation for 120 minutes at 27° C., the reaction was stopped by rapid filtration through Tomtec Cell Harvester (48 wells) using Filtermat B (presoaked in 0.1% PEI) filters. Filters were washed with ice-cold 50 mM Tris-HCl (pH 7.4) buffer (9×700 μl), dried, covered with MeltiLex B/HS (Wallac) scintillator sheets and heated in oven at 80° C. to 90° C. for about 10 minutes, transferred into plastic sample bags (Wallac), sealed, and put into 1024 Beta Plate scintillation counter (Wallac). Non-specific binding was determined in the presence of clozapine dissolved in DMSO to a final concentration of 10^−5 M.
The specific radioligand binding to the receptor was defined by the difference between total binding and non-specific binding, determined in the presence of an excess of unlabelled ligand. Results were expressed as percentage of control specific binding obtained in the presence of the compounds.

In another assay the target is T2, 5-HT1A (Homo sapiens, UniProt P08908).
T2 sequence (P08908 1-422): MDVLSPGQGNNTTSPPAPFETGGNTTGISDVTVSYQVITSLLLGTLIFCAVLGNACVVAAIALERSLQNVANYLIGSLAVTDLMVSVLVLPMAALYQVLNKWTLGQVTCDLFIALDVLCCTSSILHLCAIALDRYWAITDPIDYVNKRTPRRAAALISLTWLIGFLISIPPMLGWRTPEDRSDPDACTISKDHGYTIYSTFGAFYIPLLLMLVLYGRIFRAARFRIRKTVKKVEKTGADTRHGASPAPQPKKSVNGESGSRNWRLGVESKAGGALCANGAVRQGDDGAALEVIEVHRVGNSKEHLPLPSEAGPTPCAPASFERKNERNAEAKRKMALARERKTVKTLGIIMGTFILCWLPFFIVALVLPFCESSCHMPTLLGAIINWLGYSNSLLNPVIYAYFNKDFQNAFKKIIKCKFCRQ
The assay can be described thus: 5HT1A Radioligand Receptor Binding Assay ([3H]-8-OH-DPAT, CHO cell membranes). On the set-up: expressed in transfected cells; host or cells: CHO cells. As to conditions: CHO membranes, human 5-HT1A. Here is the method: 5HT1A Radioligand Receptor Binding Assay
Membranes from CHO cells, expressing 5-HT1A human receptors were suspended in incubation buffer.
Binding assays were performed in MultiProbe 204 pipetting system (Packard), according to a predetermined mapping, consistent with the software Screen. The compounds were tested in singlicate at one concentration (10^−7 M) in a total volume of 1000 μl. 980 μl of diluted membranes, 10 μl DMSO or unlabelled ligand and 10 μl of [^3H]-8-OH-DPAT (0.6-0.7 nM) were incubated for 60 minutes at 27° C. The reaction was stopped by rapid filtration through Tomtec Cell Harvester (48 wells) using Filtermat B (presoaked in 0.1% PEI) filters. Filters were washed with ice-cold 50 mM Tris-HCl (pH 7.4) buffer (9×700 μl), dried, covered with MeltiLex B/HS scintillator sheets (Wallac) and heated at 80° C. to 90° C. for about 10 minutes, transferred into plastic sample bags (Wallac), sealed, and put into 1024 Beta Plate scintillation counter (Wallac). Non-specific binding was determined in the presence of 5-HT (10^−5 M).
The specific radioligand binding to the receptor was defined by the difference between total binding and non-specific binding, determined in the presence of an excess of unlabelled ligand. Results were expressed as percentage of control specific binding obtained in the presence of the compounds. The affinity values (IC50) for the compounds were obtained by a nonlinear least squares regression analysis on the basis of a one binding site model.

Where [1] appears, read: compound 10^−7 M, singlicate, [3H]-8-OH-DPAT 0.6-0.7 nM.

Structures are written as SMILES.

For orientation: inhibition means the change of the read-out against control, counted positive when it falls. As a reminder, the IC50 is the concentration needed to halve the response being measured.

Turning to `COc1ccccc1N1CCN(C/C=C/Cn2c(=O)n(CCNS(C)(=O)=O)c3ccccc32)CC1` [Compound 535], the “D4 Receptor Binding Assay % inhibition (10^−7 M)” value at D4 human receptors came out at 39%. Also, at 5-HT1A (setting [1]), the “5-HT1A Receptor Binding Assay % inhibition (10^−7 M)” value was determined as 97%.
Regarding `O=c1n(CCO)c2ccccc2n1CCCCN1CCN(c2ccccn2)CC1` [Compound 59], at D4 human receptors, the “D4 Receptor Binding Assay % inhibition (10^−7 M)” value is reported as 51%. Also, the “5-HT1A Receptor Binding Assay % inhibition (10^−7 M)” value on 5-HT1A (setting [1]) is given as 75%.
In the same order, the values of `COc1ccccc1N1CCN(CCn2c(=O)n(CCN3CCCCC3)c3ccccc32)CC1` [Compound 159] are 50% and 85%.
As for `CCNC(=O)OCCn1c(=O)n(CCCCN2CCN(c3ccccn3)CC2)c2ccccc21` [Compound 78], at D4 human receptors, the “D4 Receptor Binding Assay % inhibition (10^−7 M)” value came out at 44%. Moreover, on 5-HT1A (setting [1]), the “5-HT1A Receptor Binding Assay % inhibition (10^−7 M)” value was 69%.
`O=c1n(CCCCN2CCN(c3cccc(C(F)(F)F)c3)CC2)c2ccccc2n1CCN1CCCCC1` [Compound 28]: the “D4 Receptor Binding Assay % inhibition (10^−7 M)” value at D4 human receptors turned out to be 35%. The “5-HT1A Receptor Binding Assay % inhibition (10^−7 M)” value at 5-HT1A (setting [1]) was 89%.
With `O=c1n(C/C=C\CN2CCc3c([nH]c4ccccc34)C2)c2ccccc2n1CCO` [Compound 367], at D4 human receptors, the “D4 Receptor Binding Assay % inhibition (10^−7 M)” value is recorded as 90%. In addition, the “5-HT1A Receptor Binding Assay % inhibition (10^−7 M)” value at 5-HT1A (setting [1]) was found to be 61%.
On to `CCNC(=O)OCCn1c(=O)n(CCCCN2CCN(c3ccccc3C)CC2)c2ccccc21` [Compound 95], for which the “D4 Receptor Binding Assay % inhibition (10^−7 M)” value at D4 human receptors is listed as 64%. Besides, the “5-HT1A Receptor Binding Assay % inhibition (10^−7 M)” value on 5-HT1A (setting [1]) turned out to be 85%.
For the compound `O=c1n(CCO)c2ccccc2n1CCN1CCN(c2ccc(Cl)c(Cl)c2)CC1` [Compound 189], the “D4 Receptor Binding Assay % inhibition (10^−7 M)” value on D4 human receptors is 99%. Also, at 5-HT1A (setting [1]), the “5-HT1A Receptor Binding Assay % inhibition (10^−7 M)” value amounted to 54%.
Turning to `O=c1n(CCCCN2CCc3c([nH]c4ccccc34)C2)c2ccccc2n1CCN1CCCCC1` [Compound 26], the “D4 Receptor Binding Assay % inhibition (10^−7 M)” value on D4 human receptors is reported as 94%. Moreover, on 5-HT1A (setting [1]), the “5-HT1A Receptor Binding Assay % inhibition (10^−7 M)” value came out at 70%.
As for `CCNC(=O)OCCn1c(=O)n(CCCCN2CCN(c3ccccc3OC)CC2)c2ccccc21` [Compound 93], on D4 human receptors, the “D4 Receptor Binding Assay % inhibition (10^−7 M)” value is 62%. The “5-HT1A Receptor Binding Assay % inhibition (10^−7 M)” value at 5-HT1A (setting [1]) amounted to 94%.
For `COc1ccccc1N1CCN(CCCCn2c(=O)n(CCO)c3ccccc32)CC1` [Compound 74], in that order: 62% and 92%.
Consider `O=c1n(C/C=C\CN2CCN(c3cccc(Cl)c3)CC2)c2ccccc2n1CCN1CCOCC1` [Compound 263], for which the inhibition at 0.1 µM on D4 human receptors is 42%; at 5-HT1A (setting [1]), 92%. The IC50 on 5-HT1A ([3H]-8-OH-DPAT, read-out: 5-HT1A Receptor Binding IC50) was 8.8 nM.
As for `O=c1n(CCCCN2CCN(c3cccc(Cl)c3)CC2)c2ccccc2n1CCN1CCOCC1` [Compound 43], the “D4 Receptor Binding Assay % inhibition (10^−7 M)” value at D4 human receptors is reported as 55%. The “5-HT1A Receptor Binding Assay % inhibition (10^−7 M)” value on 5-HT1A (setting [1]) worked out at 104%.
As to `CCNC(=O)OCCn1c(=O)n(CCN2CCN(c3ccccc3OC)CC2)c2ccccc21` [Compound 216], the “D4 Receptor Binding Assay % inhibition (10^−7 M)” value at D4 human receptors is reported as 44%. Also, on 5-HT1A (setting [1]), the “5-HT1A Receptor Binding Assay % inhibition (10^−7 M)” value is reported as 92%.
In the same order, the values of `O=c1n(CCCCN2CC=C(c3ccccc3)CC2)c2ccccc2n1CCN1CCCCC1` [Compound 29] are 83% and 57%.
In the same order, the values of `O=c1n(CCCCN2CCN(c3ccccc3)CC2)c2ccccc2n1CCN1CCOCC1` [Compound 39] are 42% and 36%.
On to `O=c1n(C/C=C/CN2CCN(c3ncccn3)CC2)c2ccccc2n1CCN1CCOCC1` [Compound 349], for which the “D4 Receptor Binding Assay % inhibition (10^−7 M)” value at D4 human receptors was 31%. In addition, the “5-HT1A Receptor Binding Assay % inhibition (10^−7 M)” value at 5-HT1A (setting [1]) is recorded as 73%.
In the same order, the values of `CCNC(=O)OCCn1c(=O)n(CCCCN2CCN(c3cccc(C)c3C)CC2)c2ccccc21` [Compound 92] are 55% and 94%.
In the same order, the values of `CS(=O)(=O)NCCn1c(=O)n(C/C=C\CN2CCN(c3ccc(Cl)c(Cl)c3)CC2)c2ccccc21` [Compound 505] are 58% and 78%.
In the case of `CCNC(=O)OCCn1c(=O)n(CCCCN2CCN(c3ccccc3Cl)CC2)c2ccccc21` [Compound 96], the “D4 Receptor Binding Assay % inhibition (10^−7 M)” value on D4 human receptors was determined as 72%. The “5-HT1A Receptor Binding Assay % inhibition (10^−7 M)” value on 5-HT1A (setting [1]) is reported as 92%.
`O=c1n(CCCCN2CCN(c3ccccc3)CC2)c2ccccc2n1CCN1CCCCC1` [Compound 20]: the “D4 Receptor Binding Assay % inhibition (10^−7 M)” value at D4 human receptors came out at 60%. The “5-HT1A Receptor Binding Assay % inhibition (10^−7 M)” value on 5-HT1A (setting [1]) amounted to 50%.
For `CCNC(=O)OCCn1c(=O)n(CCCCN2CC=C(c3ccccc3)CC2)c2ccccc21` [Compound 84], in that order: 42% and 52%.
In the same order, the values of `CCNC(=O)OCCn1c(=O)n(CCCCN2CCN(c3ccccc3)CC2)c2ccccc21` [Compound 75] are 54% and 67%.
In the same order, the values of `COCCn1c(=O)n(CCCCN2CCc3c([nH]c4ccccc34)C2)c2ccccc21` [Compound 7] are 91% and 77%.
`O=c1n(CCO)c2ccccc2n1CCCCN1CCN(c2ccccc2)CC1` [Compound 56]: the “D4 Receptor Binding Assay % inhibition (10^−7 M)” value on D4 human receptors is 71%. In addition, the “5-HT1A Receptor Binding Assay % inhibition (10^−7 M)” value at 5-HT1A (setting [1]) stood at 63%.
In the same order, the values of `O=c1n(CCN2CC=C(c3ccccc3)CC2)c2ccccc2n1CCN1CCCCC1` [Compound 150] are 52% and 57%.
As for `CS(=O)(=O)NCCn1c(=O)n(C/C=C/CN2CCN(c3ccc(Cl)c(Cl)c3)CC2)c2ccccc21` [Compound 527], at D4 human receptors, the “D4 Receptor Binding Assay % inhibition (10^−7 M)” value came out at 36%. In addition, the “5-HT1A Receptor Binding Assay % inhibition (10^−7 M)” value at 5-HT1A (setting [1]) worked out at 73%.
In the same order, the values of `CC(=O)NCCn1c(=O)n(CCCCN2CCN(c3ccc(Cl)c(Cl)c3)CC2)c2ccccc21` [Compound 107] are 58% and 55%.
In the same order, the values of `O=c1n(C/C=C/CN2CCN(c3ccccc3)CC2)c2ccccc2n1CCO` [Compound 378] are 35% and 77%.
For the compound `COCCn1c(=O)n(CCN2CC=C(c3ccccc3)CC2)c2ccccc21` [Compound 169], the “D4 Receptor Binding Assay % inhibition (10^−7 M)” value on D4 human receptors worked out at 58%. Further, the “5-HT1A Receptor Binding Assay % inhibition (10^−7 M)” value at 5-HT1A (setting [1]) is 85%.
